Assays:
[1] = Metabolic stability in rat liver microsomes assessed as parent compound remaining measured after 10 mins in presence of NADPH; assay type: ADME, Microsome; details: for remaining at 10 min: liver microsomes, read-out: Stabilty; for Stabilty: microsomes, 10 min
[2] = target: T1, Apelin receptor (Rattus norvegicus, UniProt Q9JHG3); assay: Agonist activity at rat APJ receptor expressed in HEK293T cells assessed as compound stimulated inhibition of forskolin stimulated cAMP production incubated for 30 mins by HTRF assay; assay type: functional, cell-based
T1 sequence (Q9JHG3 whole entry): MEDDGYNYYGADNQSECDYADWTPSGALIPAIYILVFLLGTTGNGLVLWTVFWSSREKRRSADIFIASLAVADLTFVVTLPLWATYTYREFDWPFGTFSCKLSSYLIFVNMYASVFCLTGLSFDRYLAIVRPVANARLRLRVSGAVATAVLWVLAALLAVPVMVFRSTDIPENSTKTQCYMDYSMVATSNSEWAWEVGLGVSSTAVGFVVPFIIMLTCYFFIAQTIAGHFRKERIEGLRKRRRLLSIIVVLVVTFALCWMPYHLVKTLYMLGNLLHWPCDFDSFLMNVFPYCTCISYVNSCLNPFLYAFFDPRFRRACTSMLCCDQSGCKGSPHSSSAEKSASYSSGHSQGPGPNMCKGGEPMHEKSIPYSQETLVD

[3] = target: T2, Apelin receptor (Homo sapiens, UniProt P35414); assay: Agonist activity at human APJ receptor expressed in HEK293T cells assessed as compound stimulated inhibition of forskolin stimulated cAMP production incubated for 30 mins by HTRF assay; assay type: functional, cell-based
T2 sequence (P35414 whole entry): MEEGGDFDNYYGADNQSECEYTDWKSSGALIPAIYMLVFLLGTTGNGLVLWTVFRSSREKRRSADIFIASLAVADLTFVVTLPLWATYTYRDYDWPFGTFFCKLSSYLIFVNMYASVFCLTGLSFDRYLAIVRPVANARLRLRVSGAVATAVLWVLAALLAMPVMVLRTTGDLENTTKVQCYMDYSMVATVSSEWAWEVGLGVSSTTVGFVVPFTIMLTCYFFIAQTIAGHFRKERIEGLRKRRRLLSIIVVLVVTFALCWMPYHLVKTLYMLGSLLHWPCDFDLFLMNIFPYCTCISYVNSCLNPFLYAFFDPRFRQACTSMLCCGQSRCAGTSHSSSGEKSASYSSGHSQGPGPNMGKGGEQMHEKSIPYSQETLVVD

[4] = Permeability of the compound at pH 5.5 by PAMPA assay; assay type: ADME; details: for Papp: read-out: permeability
[5] = Metabolic stability in human liver microsomes assessed as parent compound remaining measured after 10 mins in presence of NADPH; assay type: ADME, Microsome; details: for remaining at 10 min: liver microsomes, read-out: Stabilty; for percent parent compound remaining: microsomes, 10 min
[6] = Permeability of the compound at pH 7.4 by PAMPA assay; assay type: ADME; details: for Papp: read-out: permeability
[7] = Free drug concentration in Sprague-Dawley rat plasma; assay type: ADME, cell-free
[8] = Cmax in Sprague-Dawley rat at 1 mg/kg, po via gavage measured after 48 hrs by LC/MS/MS analysis; assay type: ADME, organism-based; set-up: route oral, time 48 hrs, dose 1 mg/kg; details: in vivo
[9] = Protein binding in Sprague-Dawley rat plasma; assay type: ADME, cell-free; details: read-out: PPB (converted)
[10] = system: Rattus norvegicus; assay: Hemodynamic activity in isoflurane-anesthetized Sprague-Dawley rat model of acute pressure-volume loop assessed as change in heart rate at 10 microg/kg/min administered as iv infusion for 15 mins (reference value: 3 +/- 1.6 %); assay type: functional; details: dose 10 µg/kg/min, 0.25 h
[11] = system: Rattus norvegicus; assay: Hemodynamic activity in isoflurane-anesthetized Sprague-Dawley rat model of acute pressure-volume loop assessed as change in stroke volume at 10 microg/kg/min administered as iv infusion for 15 mins (reference value: -0.6 %); assay type: functional; details: dose 10 µg/kg/min, 0.25 h
[12] = AUC(0 to 24 hrs) in Sprague-Dawley rat at 1 mg/kg, po via gavage measured after 48 hrs by LC/MS/MS analysis; assay type: ADME, organism-based; set-up: route oral, dose 1 mg/kg, time 48 hrs; details: in vivo
[13] = system: Rattus norvegicus; assay: Hemodynamic activity in isoflurane-anesthetized Sprague-Dawley rat model of acute pressure-volume loop assessed as change in cardiac output at 10 microg/kg/min administered as iv infusion for 15 mins (reference value: 2.3 +/- 2.1 %); assay type: functional; details: dose 10 µg/kg/min, 0.25 h
[14] = system: Rattus norvegicus; assay: Hemodynamic activity in isoflurane-anesthetized Sprague-Dawley rat model of acute pressure-volume loop assessed as change in dp/dT at 10 microg/kg/min administered as iv infusion for 15 mins (reference value: 3.3 +/- […]); assay type: functional; details: dose 10 µg/kg/min, 0.25 h
[15] = Half life in Sprague-Dawley rat at 1 mg/kg, po via gavage measured after 48 hrs by LC/MS/MS analysis; assay type: ADME, organism-based; details: in vivo
[16] = system: Rattus norvegicus; assay: Hemodynamic activity in isoflurane-anesthetized Sprague-Dawley rat model of acute pressure-volume loop assessed as change in blood pressure at 10 microg/kg/min administered as iv infusion for 15 mins (reference value: -0.2 %); assay type: functional; details: dose 10 µg/kg/min, 0.25 h

Row | remaining at 10 min [1] | EC50 [2] | EC50 [3] | Papp [4] | remaining at 10 min [5] | Papp [6] | Compound | further results
1 | 65% | 0.33 nM | 0.29 nM | 2.3 ×10⁻⁶ cm/s | 82% | – | CCCCc1nc(=O)c(C(=O)N2CCC(c3cccnc3)C2)c(O)n1-c1c(OC)cccc1OC (stereo in doubt; 12a) | –
2 | 25% | 0.27 nM | – | 52.3 ×10⁻⁶ cm/s | 85% | 1.2 ×10⁻⁶ cm/s | CCCCc1nc(=O)c(C(=O)N2CC[C@H](c3ccccc3)C2)c(O)n1-c1c(OC)cccc1OC | –
3 | – | 0.61 nM | 0.44 nM | 6.4 ×10⁻⁶ cm/s | – | 0.3 ×10⁻⁶ cm/s | CCOCc1nc(=O)c(C(=O)N2CC[C@H](c3ccccc3)C2)c(O)n1-c1c(OC)cccc1OC | –
4 | 7% | 0.17 nM | 0.15 nM | 30 ×10⁻⁶ cm/s | 97% | 7.4 ×10⁻⁶ cm/s | CCCCc1nc(=O)c(C(=O)N2CCC(c3ccc(Cl)cc3)C2)c(O)n1-c1c(OC)cccc1OC (stereo in doubt; 10a) | –
5 | – | 4 nM | 2.7 nM | – | – | – | CCCCc1nc(=O)c(C(=O)N2CCC(c3ccncc3)C2)c(O)n1-c1c(OC)cccc1OC (stereo in doubt; 13b) | Stabilty [1]: 80%; permeability [6]: 0.5 ×10⁻⁶ cm/s; permeability [4]: 1.9 ×10⁻⁶ cm/s; percent parent compound remaining [5]: 90%
6 | – | 10 nM | 9.3 nM | – | – | – | CCCCc1[nH]c(=O)c(C(=O)N(C)CCc2ccc(Cl)cc2)c(O)c1-c1c(OC)cccc1OC | –
7 | – | 0.31 nM | 0.24 nM | – | – | – | CCCCc1nc(=O)c(C(=O)N2CCC(c3ccc(Cl)cc3)C2)c(O)n1-c1c(OC)cccc1OC (stereo in doubt; 10b) | Stabilty [1]: 8%; permeability [6]: 6.3 ×10⁻⁶ cm/s; permeability [4]: 38 ×10⁻⁶ cm/s; percent parent compound remaining [5]: 90%
8 | 69% | 3.1 nM | 1.8 nM | 63 ×10⁻⁶ cm/s | 100% | 7.3 ×10⁻⁶ cm/s | CCCCc1[nH]c(=O)c(C(=O)N2CC[C@@H](c3ccccc3)C2)c(O)c1-c1c(OC)cccc1OC | –
9 | 68% | 0.37 nM | 0.17 nM | 4.2 ×10⁻⁶ cm/s | 82% | – | CCCCc1nc(=O)c(C(=O)N2CCC(c3ccccn3)C2)c(O)n1-c1c(OC)cccc1OC (stereo in doubt; 11a) | –
10 | – | 150 nM | 120 nM | – | – | – | CCCCc1[nH]c(=O)c(C(=O)N(CCC)Cc2ccccc2)c(O)c1-c1c(OC)cccc1OC | –
11 | 35% | 0.063 nM | 0.032 nM | – | 100% | – | CCCCc1nc(=O)c(C(=O)N2CC[C@H](c3ccc(Cl)cn3)C2)c(O)n1-c1c(OC)cccc1OC | –
12 | 83% | 2.1 nM | 1.5 nM | – | 93% | 0.3 ×10⁻⁶ cm/s | CCCCc1nc(=O)c(C(=O)N2CCC(c3ccncc3)C2)c(O)n1-c1c(OC)cccc1OC (stereo in doubt; 13a) | permeability [4]: 0.9 ×10⁻⁶ cm/s
13 | 26% | 0.34 nM | – | 32.5 ×10⁻⁶ cm/s | 97% | 2.3 ×10⁻⁶ cm/s | CCCCc1nc(=O)c(C(=O)N2CC[C@@H](c3ccccc3)C2)c(O)n1-c1c(OC)cccc1OC | –
14 | – | > 30000 nM | > 30000 nM | – | – | – | CCCCc1[nH]c(=O)c(C(=O)NCC)c(O)c1-c1c(OC)cccc1OC | –
15 | – | 0.4 nM | 0.3 nM | – | – | 0.1 ×10⁻⁶ cm/s | CCCCc1nc(=O)c(C(=O)N2CCC(c3cccnc3)C2)c(O)n1-c1c(OC)cccc1OC (stereo in doubt; 12b) | Stabilty [1]: 70%; permeability [4]: 2.1 ×10⁻⁶ cm/s; percent parent compound remaining [5]: 89%
16 | – | 4800 nM | 1100 nM | – | – | – | CCCCc1[nH]c(=O)c(C(=O)NCc2ccccc2)c(O)c1-c1c(OC)cccc1OC | –
17 | 73% | 1.8 nM | 1 nM | 84 ×10⁻⁶ cm/s | 99% | 1.8 ×10⁻⁶ cm/s | CCCCc1[nH]c(=O)c(C(=O)N2CC[C@H](c3ccccc3)C2)c(O)c1-c1c(OC)cccc1OC | –
18 | 43% | 0.035 nM | 0.027 nM | – | 100% | – | CCCCc1nc(=O)c(C(=O)N2CC[C@@H](c3ccc(Cl)cn3)C2)c(O)n1-c1c(OC)cccc1OC | Cp(f) [7]: 0.0064 µM; Cmax [8]: 3.2 µM; fraction unbound [9]: 0.022; Activity [10]: 4.6%; Activity [11]: 67%; AUC(0-t) at 48 h [12]: 1.9 µM·h; Activity [13]: 11.7%; Activity [14]: 9.1%; half-life [15]: 3.2 h; Activity [16]: -2.8%
19 | – | 1200 nM | 1100 nM | – | – | – | CCCCc1[nH]c(=O)c(C(=O)N(C)C)c(O)c1-c1c(OC)cccc1OC | –
20 | – | 0.15 nM | 0.12 nM | – | – | 0.6 ×10⁻⁶ cm/s | CCCCc1nc(=O)c(C(=O)N2CCC(c3ccccn3)C2)c(O)n1-c1c(OC)cccc1OC (stereo in doubt; 11b) | Stabilty [1]: 62%; permeability [4]: 7.8 ×10⁻⁶ cm/s

Row | Compound | remaining at 10 min [1] | EC50 [2] | EC50 [3] | Papp [4] | remaining at 10 min [5] | Papp [6] | further results
21 | CCOCc1[nH]c(=O)c(-c2nnc(Cc3ccc(C)cn3)o2)c(O)c1-c1c(OC)cccc1OC | – | 0.024 nM | 0.023 nM | – | – | – | –
